Patent US11834440B2, “Beta-lactam derivatives for the treatment of diseases” (Insilico Medicine IP Limited, priority 2021, dated 2023)

Target: QPCTL (Homo sapiens (Human), UniProt Q9NXS2)
Assay: QPCTL inhibition, SensoLyte Green Glutaminyl Cyclase Activity Assay
Format: biochemical
Details: 0.8 nM 2x enzyme solution, 45 min at 37° C., 50 mM Tris pH 8.0, 1% DMSO
Method: Preparation of working solution: 2×Glutaminyl Cyclase substrate was diluted in assay buffer to […]. 2×enzyme solution and QPCTL was diluted in assay buffer to 0.8 nM. Glutaminyl Cyclase Developer was diluted in assay buffer to 1×(containing 10 mM 1-Benzyl-Imidazole). Serial dilution of test compounds was performed in DMSO. The final DMSO concentration in 100 μl reaction was 1%. The assay buffer was 50 mM Tris, pH 8.0, 0.01% BSA.
Procedure: 50 μL of 2×Glutaminyl Cyclase substrate solution was added into the assay plate followed by 50 μL of 2×enzyme solution. The plate was centrifuged for 1 min at 1000 rmp. Next the plate was incubated for 45 minutes at 37° C. This was followed by the additional of 50 μL of the prepared Glutaminyl Cyclase developer and incubated for additional 30 min at 37° C. Results were read on SpectraMax Paradigm detecting with emission at Ex/Em=490 nm/520 nm.
A Z′ value was calculated for each assay plate. The Z′ value must be >0.5 or the plate was disqualified. […] Results were calculated using GraphPad Prism 7 software is used for IC50 determination.

Chain of QPCTL (Q9NXS2 whole entry, species assumed): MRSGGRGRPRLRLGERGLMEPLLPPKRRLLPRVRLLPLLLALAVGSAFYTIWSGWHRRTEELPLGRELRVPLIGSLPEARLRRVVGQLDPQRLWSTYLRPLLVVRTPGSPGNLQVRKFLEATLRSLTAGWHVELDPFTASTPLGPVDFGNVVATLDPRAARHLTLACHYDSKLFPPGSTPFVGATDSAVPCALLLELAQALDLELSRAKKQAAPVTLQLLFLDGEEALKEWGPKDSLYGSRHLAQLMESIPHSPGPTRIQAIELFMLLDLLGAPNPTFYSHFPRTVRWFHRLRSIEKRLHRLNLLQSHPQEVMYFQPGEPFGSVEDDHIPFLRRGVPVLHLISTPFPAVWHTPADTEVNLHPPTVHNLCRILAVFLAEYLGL

| Compound | IC50 |
| --- | --- |
| C[C@@H]1C(=O)N(c2ccc3[nH]cnc3c2)[C@@H]1c1c(F)cc(OCC(C)(C)O)cc1F (single isomer, unassigned) [Compound 32A] | 25 to 1000 nM |
| C[C@H]1C(=O)N(c2ccc3[nH]cnc3c2)[C@H]1c1c(F)cc(OCC(C)(C)O)cc1F (single isomer, unassigned) [Compound 32B] | < 2 nM |
| O=C1[C@@H](C2CC2)[C@@H](c2c(F)cc(-c3cnn(C(F)(F)F)c3)cc2F)N1c1ccc2[nH]cnc2c1 (single isomer, unassigned) [Compound 35A] | 25 to 1000 nM |
| O=C1[C@H](C2CC2)[C@H](c2c(F)cc(-c3cnn(C(F)(F)F)c3)cc2F)N1c1ccc2[nH]cnc2c1 (single isomer, unassigned) [Compound 35B] | < 2 nM |
| O=C1[C@@H](C2COC2)[C@@H](c2c(F)cc(-c3cnn(C(F)(F)F)c3)cc2F)N1c1ccc2[nH]cnc2c1 (single isomer, unassigned) [Compound 42A] | 25 to 1000 nM |
| O=C1[C@H](C2COC2)[C@H](c2c(F)cc(-c3cnn(C(F)(F)F)c3)cc2F)N1c1ccc2[nH]cnc2c1 (single isomer, unassigned) [Compound 42B] | < 2 nM |
| O=C1[C@@H](C2CC2)[C@@H](c2ccc(-c3cnn(C(F)(F)F)c3)nc2)N1c1ccc2[nH]cnc2c1 (single isomer, unassigned) [Compound 43A] | 25 to 1000 nM |
| O=C1[C@H](C2CC2)[C@H](c2ccc(-c3cnn(C(F)(F)F)c3)nc2)N1c1ccc2[nH]cnc2c1 (single isomer, unassigned) [Compound 43B] | < 2 nM |
| O=C1[C@H](C2COC2)[C@H](c2c(F)cc(OCCC(F)F)cc2F)N1c1ccc2[nH]cnc2c1 (single isomer, unassigned) [Compound 44B] | < 2 nM |
| O=C1[C@@H](C2CC2)[C@@H](c2ccc(OCCC(F)F)nc2)N1c1ccc2[nH]cnc2c1 (single isomer, unassigned) [Compound 45A] | 25 to 1000 nM |
| O=C1[C@H](C2CC2)[C@H](c2ccc(OCCC(F)F)nc2)N1c1ccc2[nH]cnc2c1 (single isomer, unassigned) [Compound 45B] | < 2 nM |
| O=C1[C@@H](C2CC2)[C@@H](c2ccc(-c3cnn(C(F)(F)F)c3)cn2)N1c1ccc2[nH]cnc2c1 (single isomer, unassigned) [Compound 46A] | 25 to 1000 nM |
| O=C1[C@H](C2CC2)[C@H](c2ccc(-c3cnn(C(F)(F)F)c3)cn2)N1c1ccc2[nH]cnc2c1 (single isomer, unassigned) [Compound 46B] | < 2 nM |
| O=C1[C@H](C2CC2)[C@H](c2c(F)cc(-c3ccn(C(F)(F)F)n3)cc2F)N1c1ccc2[nH]cnc2c1 (single isomer, unassigned) [Compound 47B] | < 2 nM |
| O=C1[C@@H](C2CC2)[C@@H](c2c(F)cc(-n3ccc(C(F)(F)F)n3)cc2F)N1c1ccc2[nH]cnc2c1 (single isomer, unassigned) [Compound 48A] | 2 to 25 nM |
| O=C1[C@H](C2CC2)[C@H](c2c(F)cc(-n3ccc(C(F)(F)F)n3)cc2F)N1c1ccc2[nH]cnc2c1 (single isomer, unassigned) [Compound 48B] | < 2 nM |
| O=C1[C@H](C2CC2)[C@H](c2c(F)cc(-c3cn(C(F)(F)F)cn3)cc2F)N1c1ccc2[nH]cnc2c1 (single isomer, unassigned) [Compound 49B] | 2 to 25 nM |
| O=C1[C@@H](C2CC2)[C@@H](c2c(F)cc(-c3cn(C(F)(F)F)nn3)cc2F)N1c1ccc2[nH]cnc2c1 (single isomer, unassigned) [Compound 50A] | 25 to 1000 nM |
| O=C1[C@H](C2CC2)[C@H](c2c(F)cc(-c3cn(C(F)(F)F)nn3)cc2F)N1c1ccc2[nH]cnc2c1 (single isomer, unassigned) [Compound 50B] | < 2 nM |
| CC[C@@H]1C(=O)N(c2ccc3[nH]cnc3c2)[C@@H]1c1c(F)cc(-c2cnn(C(F)(F)F)c2)cc1F (single isomer, unassigned) [Compound 51A] | 25 to 1000 nM |
| CC[C@H]1C(=O)N(c2ccc3[nH]cnc3c2)[C@H]1c1c(F)cc(-c2cnn(C(F)(F)F)c2)cc1F (single isomer, unassigned) [Compound 51B] | < 2 nM |
| O=C1[C@H](C2CC2)[C@H](c2c(F)cc(-c3ccc(C(F)(F)F)nn3)cc2F)N1c1ccc2[nH]cnc2c1 (single isomer, unassigned) [Compound 52B] | < 2 nM |
| O=C1[C@H](C2CC2)[C@H](c2c(F)cc(-c3cnccn3)cc2F)N1c1ccc2[nH]cnc2c1 (single isomer, unassigned) [Compound 53B] | < 2 nM |
| O=C1[C@H](CC(F)(F)F)[C@H](c2c(F)cc(-c3cnn(C(F)(F)F)c3)cc2F)N1c1ccc2[nH]cnc2c1 (single isomer, unassigned) [Compound 54B] | < 2 nM |
| O=C1[C@@H](C2CC2)[C@@H](c2ccc(-c3cnn(C(F)(F)F)c3)cc2)N1c1ccc2[nH]cnc2c1 (single isomer, unassigned) [Compound 55A] | 25 to 1000 nM |

Results, then the compound that gave them:

| IC50 | Compound |
| --- | --- |
| < 2 nM | O=C1[C@H](C2CC2)[C@H](c2ccc(-c3cnn(C(F)(F)F)c3)cc2)N1c1ccc2[nH]cnc2c1 (single isomer, unassigned) [Compound 55B] |
| 25 to 1000 nM | Cc1cc(-c2cnn(C(F)(F)F)c2)ccc1[C@@H]1[C@H](C2CC2)C(=O)N1c1ccc2[nH]cnc2c1 (single isomer, unassigned) [Compound 56A] |
| < 2 nM | Cc1cc(-c2cnn(C(F)(F)F)c2)ccc1[C@H]1[C@@H](C2CC2)C(=O)N1c1ccc2[nH]cnc2c1 (single isomer, unassigned) [Compound 56B] |
| 25 to 1000 nM | Cc1cc([C@@H]2[C@H](C3CC3)C(=O)N2c2ccc3[nH]cnc3c2)ccc1-c1cnn(C(F)(F)F)c1 (single isomer, unassigned) [Compound 57A] |
| < 2 nM | Cc1cc([C@H]2[C@@H](C3CC3)C(=O)N2c2ccc3[nH]cnc3c2)ccc1-c1cnn(C(F)(F)F)c1 (single isomer, unassigned) [Compound 57B] |
| < 2 nM | O=C1[C@H](C2CC2)[C@H](c2c(F)cc(-n3cc(C(F)(F)F)cn3)cc2F)N1c1ccc2[nH]cnc2c1 (single isomer, unassigned) [Compound 58B] |
| < 2 nM | O=C1[C@H](C2CC2)[C@H](c2c(F)cc(-n3cc(C(F)(F)F)nn3)cc2F)N1c1ccc2[nH]cnc2c1 (single isomer, unassigned) [Compound 59B] |
| < 2 nM | O=C1[C@H](C2CC2)[C@H](c2c(F)cc(-n3ncc(C(F)(F)F)n3)cc2F)N1c1ccc2[nH]cnc2c1 (single isomer, unassigned) [Compound 60B] |
| < 2 nM | O=C1[C@H](C2CC2)[C@H](c2c(F)cc(-n3cnc(C(F)(F)F)c3)cc2F)N1c1ccc2[nH]cnc2c1 (single isomer, unassigned) [Compound 61B] |
| < 2 nM | Cc1cc(-c2cc(F)c([C@H]3[C@@H](C4CC4)C(=O)N3c3ccc4[nH]cnc4c3)c(F)c2)on1 (single isomer, unassigned) [Compound 62B] |
| < 2 nM | Cc1oncc1-c1cc(F)c([C@H]2[C@@H](C3CC3)C(=O)N2c2ccc3[nH]cnc3c2)c(F)c1 (single isomer, unassigned) [Compound 63B] |
| 2 to 25 nM | Cc1noc(C)c1-c1cc(F)c([C@H]2[C@@H](C3CC3)C(=O)N2c2ccc3[nH]cnc3c2)c(F)c1 (single isomer, unassigned) [Compound 64B] |
| < 2 nM | Cc1ccc(-c2cc(F)c([C@H]3[C@@H](C4CC4)C(=O)N3c3ccc4[nH]cnc4c3)c(F)c2)nn1 (single isomer, unassigned) [Compound 65B] |
| 25 to 1000 nM | Cc1cc(-c2cnn(C(F)(F)F)c2)ncc1[C@@H]1[C@H](C2CC2)C(=O)N1c1ccc2[nH]cnc2c1 (single isomer, unassigned) [Compound 66A] |
| < 2 nM | Cc1cc(-c2cnn(C(F)(F)F)c2)ncc1[C@H]1[C@@H](C2CC2)C(=O)N1c1ccc2[nH]cnc2c1 (single isomer, unassigned) [Compound 66B] |
| 25 to 1000 nM | Cc1cc(-c2ccc(C(F)(F)F)nn2)ccc1[C@@H]1[C@H](C2CC2)C(=O)N1c1ccc2[nH]cnc2c1 (single isomer, unassigned) [Compound 67A] |
| < 2 nM | Cc1cc(-c2ccc(C(F)(F)F)nn2)ccc1[C@H]1[C@@H](C2CC2)C(=O)N1c1ccc2[nH]cnc2c1 (single isomer, unassigned) [Compound 67B] |
| 25 to 1000 nM | Cc1nc(-c2cnn(C(F)(F)F)c2)ccc1[C@@H]1[C@H](C2CC2)C(=O)N1c1ccc2[nH]cnc2c1 (single isomer, unassigned) [Compound 68A] |
| < 2 nM | Cc1nc(-c2cnn(C(F)(F)F)c2)ccc1[C@H]1[C@@H](C2CC2)C(=O)N1c1ccc2[nH]cnc2c1 (single isomer, unassigned) [Compound 68B] |
| 25 to 1000 nM | O=C1[C@@H](C2CC2)[C@@H](c2c(F)cc(C3CC3)cc2F)N1c1ccc2[nH]cnc2c1 (single isomer, unassigned) [Compound 69A] |
| < 2 nM | O=C1[C@H](C2CC2)[C@H](c2c(F)cc(C3CC3)cc2F)N1c1ccc2[nH]cnc2c1 (single isomer, unassigned) [Compound 69B] |
| 25 to 1000 nM | Cc1nc(-c2ccc(C(F)(F)F)nn2)ccc1[C@@H]1[C@H](C2CC2)C(=O)N1c1ccc2[nH]cnc2c1 (single isomer, unassigned) [Compound 70A] |
| < 2 nM | Cc1nc(-c2ccc(C(F)(F)F)nn2)ccc1[C@H]1[C@@H](C2CC2)C(=O)N1c1ccc2[nH]cnc2c1 (single isomer, unassigned) [Compound 70B] |
